From publication PMC8262356, “SLC26A6-selective inhibitor identified in a small-molecule screen blocks fluid absorption in small intestine” (JCI Insight, 2021)
pIC50: −log10 of the molar value. Where “and” joins values, the source holds several entries; their conditions need not be identical. Identical values can stand only once.

Experiments:
PAT1 (murine slc26a6) = molecular target: T1, PAT1 (murine slc26a6) (Mus musculus, UniProt Q8CIW6); assay: PAT1-mediated Cl-/I- exchange, YFP fluorescence quenching in FRT cells; format: cell-based
T1 construct: host or cells: Fischer rat thyroid (FRT) cells, lentiviral transduction (pLVX-IRES-mCherry-slc26a6), clonal line FRT-YFP-slc26a6
T1 sequence (Q8CIW6 24-758 limits assumed): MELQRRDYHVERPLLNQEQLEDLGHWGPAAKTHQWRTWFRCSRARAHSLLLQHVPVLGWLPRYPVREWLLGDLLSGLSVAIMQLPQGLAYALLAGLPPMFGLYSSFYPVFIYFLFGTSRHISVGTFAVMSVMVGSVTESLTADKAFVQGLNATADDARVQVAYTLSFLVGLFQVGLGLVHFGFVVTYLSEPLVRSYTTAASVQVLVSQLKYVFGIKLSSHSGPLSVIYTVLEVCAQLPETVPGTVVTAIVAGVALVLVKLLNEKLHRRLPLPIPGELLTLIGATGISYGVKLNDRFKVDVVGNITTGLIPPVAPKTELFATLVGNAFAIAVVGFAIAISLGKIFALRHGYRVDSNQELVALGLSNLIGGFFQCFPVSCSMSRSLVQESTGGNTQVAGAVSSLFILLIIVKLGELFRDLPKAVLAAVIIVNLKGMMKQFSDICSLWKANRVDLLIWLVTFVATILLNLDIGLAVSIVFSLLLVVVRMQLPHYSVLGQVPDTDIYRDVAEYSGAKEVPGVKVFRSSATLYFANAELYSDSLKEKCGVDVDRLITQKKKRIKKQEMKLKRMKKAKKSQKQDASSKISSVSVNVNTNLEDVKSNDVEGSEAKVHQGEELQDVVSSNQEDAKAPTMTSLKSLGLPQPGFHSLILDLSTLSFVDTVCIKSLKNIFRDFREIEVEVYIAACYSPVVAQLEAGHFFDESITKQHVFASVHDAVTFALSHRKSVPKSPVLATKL
Procedure: A small-molecule screen was developed to identify PAT1 inhibitors utilizing transfected FRT cells expressing PAT1 (murine slc26a6) together with a halide-sensing cytoplasmic YFP (Figure 1A). Adherent cells in a 96-well format were subjected to an inward gradient of I^– to drive exchange of I^– for Cl^– and consequent quenching of the YFP fluorescence signal.
A collection of approximately 50,000 diverse, drug-like synthetic small molecules (ChemDiv) was screened at a concentration of 25 μM using a Beckman Coulter BioMek FX liquid handling platform with FLUOstar OMEGA plate readers (BMG Labtech). FRT-YFP-slc26a6 cells were plated in 96-well black-walled, clear-bottom plates (Corning Life Sciences) at a density of 20,000 cells/well and cultured for 48 hours until confluent. Cells were washed twice in PBS and incubated for 10 minutes prior to assay in 100 μl PBS containing test compounds. For assay of slc26a6 function, baseline cellular fluorescence was measured for 2 seconds, after which 100 μl NaI-substituted PBS (140 mM NaCl replaced by 140 mM NaI) was added by syringe pump to drive Cl^–/I^– exchange. The initial rate of Cl^–/I^– exchange was determined by single exponential regression of the fluorescence time course. All assay plates contained wells with negative (1% DMSO) and positive (500 μM niflumic acid) controls. For structure-activity relationship studies, analogs of active compounds were purchased from ChemDiv.

mouse ileal closed loops = assay: Closed ileal loop fluid absorption; format: in vivo
Procedure: For fluid absorption studies in small intestine, mice were given free access to 5% dextrose in water but not solid food for 24 hours before experiments. Closed midjejunal and ileal loops were prepared and isolated as described previously ([29]). Mice were anesthetized with isoflurane, and body temperature was maintained during surgery at 36°C–38°C using a heating pad. A small abdominal incision was made to expose small intestine for isolation of 3–4 closed small intestinal loops (jejunum or ileum, length 2–3 cm) with sutures. Loops were injected with 100 μL PBS (pH 7.4, 137 mM NaCl, 2.7 mM KCl, 8 mM Na2HPO4, 1.8 mM KH2PO4, 1 mM CaCl2, 0.5 mM MgCl2) containing 30 μM PAT1inh-B01, 10 μM DRAinh-A270, or 10 μM tenapanor (MedChemExpress) (or vehicle, 0.1% DMSO in PBS). In some experiments, 30 μM PAT1inh-B01 and 10 μM DRAinh-A270 were used together. In some experiments to rule out effects of sodium-dependent phosphate transport, the loop lumen contained HEPES-buffered saline (pH 7.4, 137 mM NaCl, 4.5 mM KCl, 10 mM HEPES, 1 mM CaCl2, 0.5 mM MgCl2). The abdominal incision was closed with sutures, and mice were allowed to recover from anesthesia. Intestinal loops were removed at 0 and 30 minutes (in separate mice), and loop length and weight were measured to quantify fluid absorption. In parallel experiments, CF mice were used and loop studies were done as described above. In some experiments, loop fluid was emptied with a syringe, and pH was measured immediately using AB15 pH meter after brief centrifugation at 2000 g for 5 minutes at 4°C.

[1] = test system: mouse distal colonic closed loops; assay: Closed distal colonic loop fluid absorption; format: in vivo; details: 30 μM luminal
Procedure: For fluid absorption studies in colon, mice were given free access to 5% dextrose in water but not solid food for 48 hours. Mice were treated with 500 μL mineral oil twice a day rectally (final dose 16 h before surgery) during this period to evacuate the colon. Closed distal colonic loops (length 1.5–2 cm, 1 loop per mouse) were isolated as described previously ([7]). Loops were injected with 100 μL PBS with 30 μM PAT1inh-B01, 10 μM DRAinh-A270, or 10 μM tenapanor (or vehicle). In some experiments, 30 μM PAT1inh-B01 and 10 μM DRAinh-A270 were used together. Colonic loops were removed at 0 and 60 minutes (in separate mice), and loop length and weight were measured to quantify fluid absorption.

time to 50% inhibition of PAT1-mediated Cl-/I- exchange (PAT1 (murine slc26a6); 1 μM): approximately 3 minutes | pIC50 (PAT1 (murine slc26a6); FRT cells expressing PAT1 and YFP, read-out: IC50, inhibition of PAT1-mediated Cl-/I- exchange): ~6.46 and 6.46 | inhibition at 25 µM (PAT1 (murine slc26a6); FRT, 25 μM, primary screen): > 75% | reversibility of inhibition following washout (PAT1 (murine slc26a6); data not shown): fully reversible
SMILES: Cc1c(Br)c(C(F)(F)F)nn1CC(=O)N1CCc2nc3cc(-c4ccccc4)[nH]n3c(=O)c2C1 [PAT1inh-B01]
effect on ileal fluid absorption (loop weight-to-length ratio) (mouse ileal closed loops; 30 μM luminal, 30 minutes, PBS): fully blocked | effect on increase of ileal loop fluid pH (mouse ileal closed loops; 30 minutes after injection of PBS (pH 7.4), control pH greater than 8.0): prevented | effect on ileal fluid absorption in absence of luminal phosphate (mouse ileal closed loops; HEPES-buffered saline): effectively blocked | block of fluid absorption in ileal loops (mouse ileal closed loops; ileal loops (abstract)): > 80% | effect on colonic fluid absorption (loop weight-to-length ratio) [1]: did not inhibit
